Experiments:
Assay in all cases: radiometric filter-binding kinase assay, Kinase HotSpot
Conditions in all cases: compound 0.5 µM; ATP 10 µM
[1] = biological target: MAP3K10 (human) (UniProt Q02779)
[2] = biological target: NTRK1 (human) (UniProt P04629)
[3] = biological target: PRKG2 (human) (UniProt Q13237)
[4] = biological target: STK17A (human) (UniProt Q9UEE5)
[5] = biological target: PLK2 (human) (UniProt Q9NYY3)
[6] = biological target: PRKCG (human) (UniProt P05129)
[7] = biological target: FGFR4 (human) (UniProt P22455)
[8] = biological target: ADRBK2 (human) (UniProt P35626)
[9] = biological target: PAK2 (human) (UniProt Q13177)
[10] = biological target: CSNK1A1 (human) (UniProt P48729)
[11] = biological target: ROCK2 (human) (UniProt O75116)
[12] = biological target: STK25 (human) (UniProt O00506)
[13] = biological target: MAP3K11 (human) (UniProt Q16584)
[14] = biological target: PDPK1 (human) (UniProt O15530)
[15] = biological target: PAK3 (human) (UniProt O75914)
[16] = biological target: STK24 (human) (UniProt Q9Y6E0)
[17] = biological target: MAPKAPK5 (human) (UniProt Q8IW41)
[18] = biological target: MAPK12 (human) (UniProt P53778)
[19] = biological target: CDK9 CCNT1 (human) (UniProt P50750+O60563)
[20] = biological target: GRK6 (human) (UniProt P43250)
[21] = biological target: PLK1 (human) (UniProt P53350)
[22] = biological target: LRRK2 (human) (UniProt Q5S007)
[23] = biological target: MST1R (human) (UniProt Q04912)
[24] = biological target: RPS6KA1 KD1 KD2 (human) (UniProt Q15418)
[25] = biological target: NEK7 (human) (UniProt Q8TDX7)
[26] = biological target: LTK (human) (UniProt P29376)
[27] = biological target: TAOK1 (human) (UniProt Q7L7X3)
[28] = biological target: SRMS (human) (UniProt Q9H3Y6)
[29] = biological target: NEK9 (human) (UniProt Q8TD19)
[30] = biological target: RET (human) (UniProt P07949)
[31] = biological target: AXL (human) (UniProt P30530)
[32] = biological target: CAMK1 (human) (UniProt Q14012)
[33] = biological target: SIK2 (human) (UniProt Q9H0K1)
[34] = biological target: NEK1 (human) (UniProt Q96PY6)
[35] = biological target: PAK4 (human) (UniProt O96013)
[36] = biological target: CDK6 CCND1 (human) (UniProt Q00534+P24385)
[37] = biological target: WEE1 (human) (UniProt P30291)
[38] = biological target: MARK2 (human) (UniProt Q7KZI7)
[39] = biological target: CLK4 (human) (UniProt Q9HAZ1)
[40] = biological target: RPS6KA3 KD1 KD2 (human) (UniProt P51812)
[41] = biological target: EPHB3 (human) (UniProt P54753)
[42] = biological target: ZAP70 (human) (UniProt P43403)

Sequence of FGFR4 (human) (P22455 whole entry, looked up): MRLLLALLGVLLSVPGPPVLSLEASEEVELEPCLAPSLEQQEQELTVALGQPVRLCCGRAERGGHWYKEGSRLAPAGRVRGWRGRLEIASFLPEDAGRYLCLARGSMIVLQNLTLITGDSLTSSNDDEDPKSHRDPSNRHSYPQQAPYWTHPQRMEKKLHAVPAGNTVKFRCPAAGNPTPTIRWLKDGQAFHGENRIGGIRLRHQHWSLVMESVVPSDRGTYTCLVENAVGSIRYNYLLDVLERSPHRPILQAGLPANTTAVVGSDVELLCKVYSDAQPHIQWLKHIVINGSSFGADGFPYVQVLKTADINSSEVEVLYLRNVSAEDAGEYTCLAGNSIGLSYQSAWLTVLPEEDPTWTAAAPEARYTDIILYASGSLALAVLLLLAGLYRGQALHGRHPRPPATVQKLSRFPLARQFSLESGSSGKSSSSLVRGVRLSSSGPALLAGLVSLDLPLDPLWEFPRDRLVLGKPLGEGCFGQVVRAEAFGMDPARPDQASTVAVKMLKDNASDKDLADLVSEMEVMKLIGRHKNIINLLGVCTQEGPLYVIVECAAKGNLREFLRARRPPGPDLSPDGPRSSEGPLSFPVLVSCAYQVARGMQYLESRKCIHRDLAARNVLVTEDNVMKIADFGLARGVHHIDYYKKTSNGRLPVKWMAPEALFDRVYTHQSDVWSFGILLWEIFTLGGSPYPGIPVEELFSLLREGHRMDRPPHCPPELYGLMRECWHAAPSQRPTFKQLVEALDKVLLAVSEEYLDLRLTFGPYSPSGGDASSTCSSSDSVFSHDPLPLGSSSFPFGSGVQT
Sequence of STK17A (human) (Q9UEE5 whole entry, looked up): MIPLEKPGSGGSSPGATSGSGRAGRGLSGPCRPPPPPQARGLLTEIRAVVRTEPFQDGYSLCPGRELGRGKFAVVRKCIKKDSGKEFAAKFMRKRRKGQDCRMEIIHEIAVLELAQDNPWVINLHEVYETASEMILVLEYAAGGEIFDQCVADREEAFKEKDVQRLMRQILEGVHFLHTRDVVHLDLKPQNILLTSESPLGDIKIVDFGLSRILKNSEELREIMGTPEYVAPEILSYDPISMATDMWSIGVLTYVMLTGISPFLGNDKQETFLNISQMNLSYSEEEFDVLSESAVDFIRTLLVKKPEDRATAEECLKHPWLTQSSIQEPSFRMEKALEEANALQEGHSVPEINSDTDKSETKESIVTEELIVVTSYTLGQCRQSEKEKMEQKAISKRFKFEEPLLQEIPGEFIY
Sequence of MAPKAPK5 (human) (Q8IW41 whole entry, looked up): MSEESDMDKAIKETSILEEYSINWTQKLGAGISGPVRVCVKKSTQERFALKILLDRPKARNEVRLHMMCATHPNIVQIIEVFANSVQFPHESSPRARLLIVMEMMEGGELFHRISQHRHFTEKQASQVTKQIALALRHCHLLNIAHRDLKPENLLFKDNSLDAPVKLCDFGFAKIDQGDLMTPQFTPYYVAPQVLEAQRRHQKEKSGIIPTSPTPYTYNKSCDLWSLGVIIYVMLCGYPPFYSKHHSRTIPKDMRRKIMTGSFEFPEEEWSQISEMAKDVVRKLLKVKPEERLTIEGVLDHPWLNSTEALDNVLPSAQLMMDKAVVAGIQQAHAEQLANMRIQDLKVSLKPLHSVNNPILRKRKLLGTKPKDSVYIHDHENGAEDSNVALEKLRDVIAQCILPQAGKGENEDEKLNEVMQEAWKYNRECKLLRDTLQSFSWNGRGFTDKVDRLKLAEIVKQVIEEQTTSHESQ
Sequence of PRKG2 (human) (Q13237 whole entry, looked up): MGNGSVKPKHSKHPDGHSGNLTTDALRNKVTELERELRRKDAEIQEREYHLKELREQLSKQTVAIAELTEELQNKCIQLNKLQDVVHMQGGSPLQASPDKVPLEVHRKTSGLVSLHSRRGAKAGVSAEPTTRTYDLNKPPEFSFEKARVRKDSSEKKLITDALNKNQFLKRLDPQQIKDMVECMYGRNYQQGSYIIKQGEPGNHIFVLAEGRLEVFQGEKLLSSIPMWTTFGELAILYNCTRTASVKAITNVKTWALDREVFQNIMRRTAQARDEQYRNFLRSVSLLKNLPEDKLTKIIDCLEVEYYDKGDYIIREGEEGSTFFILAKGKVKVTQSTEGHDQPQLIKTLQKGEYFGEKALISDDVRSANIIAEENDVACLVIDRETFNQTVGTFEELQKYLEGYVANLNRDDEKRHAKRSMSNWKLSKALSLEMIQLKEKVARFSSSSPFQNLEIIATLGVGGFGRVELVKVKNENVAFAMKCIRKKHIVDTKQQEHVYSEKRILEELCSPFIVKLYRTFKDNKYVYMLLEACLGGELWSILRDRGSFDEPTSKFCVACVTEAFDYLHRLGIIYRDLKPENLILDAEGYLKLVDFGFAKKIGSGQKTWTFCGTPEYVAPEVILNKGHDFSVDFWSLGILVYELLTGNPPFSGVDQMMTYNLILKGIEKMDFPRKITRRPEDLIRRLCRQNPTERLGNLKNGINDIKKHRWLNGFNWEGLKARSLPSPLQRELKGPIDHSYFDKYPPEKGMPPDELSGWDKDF
Sequence of CSNK1A1 (human) (P48729 whole entry, looked up): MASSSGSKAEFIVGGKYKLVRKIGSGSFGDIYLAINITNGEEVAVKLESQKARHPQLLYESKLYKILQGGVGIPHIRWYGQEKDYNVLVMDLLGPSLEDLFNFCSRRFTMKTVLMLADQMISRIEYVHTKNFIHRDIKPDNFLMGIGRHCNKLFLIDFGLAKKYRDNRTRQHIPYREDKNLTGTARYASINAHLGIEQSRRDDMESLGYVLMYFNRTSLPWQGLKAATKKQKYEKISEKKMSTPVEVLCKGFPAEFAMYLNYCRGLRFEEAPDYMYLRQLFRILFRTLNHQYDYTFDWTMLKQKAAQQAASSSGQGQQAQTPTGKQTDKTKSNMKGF
Sequence of LTK (human) (P29376 whole entry, looked up): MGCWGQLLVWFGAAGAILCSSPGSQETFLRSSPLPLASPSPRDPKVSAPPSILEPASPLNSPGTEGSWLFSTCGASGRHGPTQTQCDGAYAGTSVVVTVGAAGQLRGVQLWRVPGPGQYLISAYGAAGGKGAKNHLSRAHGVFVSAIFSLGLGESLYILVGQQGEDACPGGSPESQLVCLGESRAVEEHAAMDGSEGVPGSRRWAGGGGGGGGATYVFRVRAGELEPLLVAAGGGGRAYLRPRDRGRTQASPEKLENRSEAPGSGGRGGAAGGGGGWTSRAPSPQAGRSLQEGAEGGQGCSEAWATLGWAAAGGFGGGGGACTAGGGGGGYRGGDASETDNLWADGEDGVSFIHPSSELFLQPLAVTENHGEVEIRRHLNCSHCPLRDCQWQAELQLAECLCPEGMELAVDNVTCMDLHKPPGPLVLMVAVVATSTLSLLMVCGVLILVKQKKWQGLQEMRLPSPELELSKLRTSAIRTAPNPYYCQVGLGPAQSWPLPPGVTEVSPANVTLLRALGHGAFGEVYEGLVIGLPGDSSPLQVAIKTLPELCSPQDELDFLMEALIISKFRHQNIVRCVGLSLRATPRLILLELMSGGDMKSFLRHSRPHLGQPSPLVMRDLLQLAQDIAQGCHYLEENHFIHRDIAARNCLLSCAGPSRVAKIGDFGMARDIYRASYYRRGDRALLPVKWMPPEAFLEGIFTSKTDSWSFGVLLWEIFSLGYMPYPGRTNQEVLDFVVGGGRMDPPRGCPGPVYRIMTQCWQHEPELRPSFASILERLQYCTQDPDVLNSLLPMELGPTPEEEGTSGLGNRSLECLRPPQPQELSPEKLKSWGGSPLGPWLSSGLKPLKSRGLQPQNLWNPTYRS
Sequence of STK25 (human) (O00506 whole entry, looked up): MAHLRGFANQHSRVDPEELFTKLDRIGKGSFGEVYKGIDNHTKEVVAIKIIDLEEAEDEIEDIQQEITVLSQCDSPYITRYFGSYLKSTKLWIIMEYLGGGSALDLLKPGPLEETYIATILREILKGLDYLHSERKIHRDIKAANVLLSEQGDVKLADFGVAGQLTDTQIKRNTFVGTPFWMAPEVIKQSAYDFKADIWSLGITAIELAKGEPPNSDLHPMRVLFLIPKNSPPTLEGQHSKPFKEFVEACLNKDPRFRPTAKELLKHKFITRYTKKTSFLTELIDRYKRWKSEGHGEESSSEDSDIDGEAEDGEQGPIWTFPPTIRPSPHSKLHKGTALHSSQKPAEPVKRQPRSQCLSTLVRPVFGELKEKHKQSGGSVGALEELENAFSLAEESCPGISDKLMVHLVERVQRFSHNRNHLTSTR
Sequence of NEK7 (human) (Q8TDX7 whole entry, looked up): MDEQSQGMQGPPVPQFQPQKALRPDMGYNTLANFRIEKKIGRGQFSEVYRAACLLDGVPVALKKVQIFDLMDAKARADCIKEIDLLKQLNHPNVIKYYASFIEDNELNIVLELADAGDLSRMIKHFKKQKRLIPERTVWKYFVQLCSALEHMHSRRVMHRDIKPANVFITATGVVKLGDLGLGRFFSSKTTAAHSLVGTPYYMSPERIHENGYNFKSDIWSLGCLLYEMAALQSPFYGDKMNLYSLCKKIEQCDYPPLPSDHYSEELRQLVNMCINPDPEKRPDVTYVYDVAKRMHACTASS
Sequence of PAK2 (human) (Q13177 whole entry, looked up): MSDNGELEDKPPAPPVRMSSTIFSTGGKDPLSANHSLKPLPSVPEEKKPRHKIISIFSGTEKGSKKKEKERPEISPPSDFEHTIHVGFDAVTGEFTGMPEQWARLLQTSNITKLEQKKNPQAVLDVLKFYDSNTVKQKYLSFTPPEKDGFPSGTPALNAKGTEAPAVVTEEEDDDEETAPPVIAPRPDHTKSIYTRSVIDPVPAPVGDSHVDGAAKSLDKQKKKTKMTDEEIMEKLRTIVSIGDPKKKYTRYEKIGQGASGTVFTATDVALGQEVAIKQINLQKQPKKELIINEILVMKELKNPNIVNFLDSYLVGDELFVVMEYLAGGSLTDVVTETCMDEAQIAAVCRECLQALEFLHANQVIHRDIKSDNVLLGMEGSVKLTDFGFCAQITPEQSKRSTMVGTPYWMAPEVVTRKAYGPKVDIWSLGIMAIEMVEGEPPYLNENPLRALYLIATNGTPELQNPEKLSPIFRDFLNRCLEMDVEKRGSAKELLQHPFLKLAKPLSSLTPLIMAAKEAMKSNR

O=C(O)c1ccc2c3c1cccc3c(=O)n1c3ccccc3nc21
residual activity [1]: 99.3%
residual activity [2]: 105%
residual activity [3]: 94.8%
residual activity [4]: 73.4%
residual activity [5]: 97%
residual activity [6]: 99.1%
residual activity [7]: 88.6%
residual activity [8]: 103%
residual activity [9]: 97%
residual activity [10]: 97.6%
residual activity [11]: 99%
residual activity [12]: 104%
residual activity [13]: 23.7%
residual activity [14]: 108%
residual activity [15]: 97.6%
residual activity [16]: 87.6%
residual activity [17]: 96%
residual activity [18]: 103%
residual activity [19]: 78.3%
residual activity [20]: 91.4%
residual activity [21]: 110%
residual activity [22]: 70.1%
residual activity [23]: 100%
residual activity [24]: 101%
residual activity [25]: 105%
residual activity [26]: 72.7%
residual activity [27]: 93.3%
residual activity [28]: 106%
residual activity [29]: 94.1%
residual activity [30]: 96.8%
residual activity [31]: 94.3%
residual activity [32]: 101%
residual activity [33]: 92.8%
residual activity [34]: 87.8%
residual activity [35]: 114%
residual activity [36]: 90.6%
residual activity [37]: 84.6%
residual activity [38]: 87.7%
residual activity [39]: 82.8%
residual activity [40]: 95.5%
residual activity [41]: 94.5%
residual activity [42]: 119%

O=C(c1ccccc1)c1ccc(N2CCOCC2)cc1O
residual activity [1]: 100%
residual activity [2]: 99%
residual activity [3]: 102%
residual activity [4]: 97.9%
residual activity [5]: 111%
residual activity [6]: 95.6%
residual activity [7]: 106%
residual activity [8]: 103%
residual activity [9]: 103%
residual activity [10]: 110%
residual activity [11]: 96%
residual activity [12]: 100%
residual activity [13]: 93.2%
residual activity [14]: 101%
residual activity [15]: 99.4%
residual activity [16]: 89%
residual activity [17]: 99.8%
residual activity [18]: 100%
residual activity [19]: 97.9%
residual activity [20]: 99.4%
residual activity [21]: 104%
residual activity [22]: 95.4%
residual activity [23]: 106%
residual activity [24]: 96.2%
residual activity [25]: 104%
residual activity [26]: 107%
residual activity [27]: 100%
residual activity [28]: 93.9%
residual activity [29]: 103%
residual activity [30]: 97.8%
residual activity [31]: 95.1%
residual activity [32]: 97.5%
residual activity [33]: 100%
residual activity [34]: 115%
residual activity [35]: 104%
residual activity [36]: 97.8%
residual activity [37]: 94.2%
residual activity [38]: 107%
residual activity [39]: 101%
residual activity [40]: 104%
residual activity [41]: 92.2%
residual activity [42]: 95.9%

O=c1c2ccccc2[nH]c(=S)n1CCN1CCC(=C(c2ccc(F)cc2)c2ccc(F)cc2)CC1
residual activity [1]: 99.6%
residual activity [2]: 97%
residual activity [3]: 104%
residual activity [4]: 103%
residual activity [5]: 104%
residual activity [6]: 100%
residual activity [7]: 105%
residual activity [8]: 102%
residual activity [9]: 103%
residual activity [10]: 106%
residual activity [11]: 98.8%
residual activity [12]: 96.6%
residual activity [13]: 95.2%
residual activity [14]: 99.2%
residual activity [15]: 94.6%
residual activity [16]: 93.4%
residual activity [17]: 101%
residual activity [18]: 99%
residual activity [19]: 102%
residual activity [20]: 111%
residual activity [21]: 100%
residual activity [22]: 93.9%
residual activity [23]: 103%
residual activity [24]: 97.9%
residual activity [25]: 100%
residual activity [26]: 97.9%
residual activity [27]: 101%
residual activity [28]: 96.7%
residual activity [29]: 97%
residual activity [30]: 106%
residual activity [31]: 91.7%
residual activity [32]: 98.6%
residual activity [33]: 89.7%
residual activity [34]: 109%
residual activity [35]: 101%
residual activity [36]: 98.7%
residual activity [37]: 93%
residual activity [38]: 108%
residual activity [39]: 103%
residual activity [40]: 99.8%
residual activity [41]: 92.8%
residual activity [42]: 98%

Source: the kinase profiling compilation of Christmann-Franck et al. (2016)
